From PubChem BioAssay AID1259407 (Chemical Carcinogenesis Research Information System (CCRIS), 2018)
Activity calls are given as the source filed them. How the calls were made is not given here.

Test system: CCRIS mutagenicity, Ames/micronucleus/aberration tests
Assay: CCRIS mutagenicity studies
[1] = Test System: AMES SALMONELLA TYPHIMURIUM, Strain/Indicator: TA98, Metabolic Activation: NONE, Method: STANDARD PLATE
[2] = Test System: AMES SALMONELLA TYPHIMURIUM, Strain/Indicator: TA98, Metabolic Activation: RAT, LIVER, S-9, AROCLOR 1254, Method: STANDARD PLATE
[3] = Test System: AMES SALMONELLA TYPHIMURIUM, Strain/Indicator: TA100, Metabolic Activation: NONE, Method: STANDARD PLATE
[4] = Test System: AMES SALMONELLA TYPHIMURIUM, Strain/Indicator: TA100, Metabolic Activation: RAT, LIVER, S-9, AROCLOR 1254, Method: STANDARD PLATE
[5] = Test System: AMES SALMONELLA TYPHIMURIUM, Strain/Indicator: TA100, Metabolic Activation: NONE, Method: PREINCUBATION
[6] = Test System: AMES SALMONELLA TYPHIMURIUM, Strain/Indicator: TA1537, Metabolic Activation: NONE, Method: STANDARD PLATE
[7] = Test System: AMES SALMONELLA TYPHIMURIUM, Strain/Indicator: TA1538, Metabolic Activation: NONE, Method: STANDARD PLATE
[8] = Test System: AMES SALMONELLA TYPHIMURIUM, Strain/Indicator: TA1538, Metabolic Activation: RAT, LIVER, S-9, AROCLOR 1254, Method: STANDARD PLATE
[9] = Test System: AMES SALMONELLA TYPHIMURIUM, Strain/Indicator: TA1535, Metabolic Activation: NONE, Method: PREINCUBATION

CN(C)CCCCl
mutagenic call (Test System: AMES SALMONELLA TYPHIMURIUM, Strain/Indicator: TA98, Metabolic Activation: HAMSTER, LIVER, S-9, AROCLOR 1254, Method: STANDARD PLATE): inactive; negative
mutagenic call [1]: inactive; negative
mutagenic call [2]: inactive; negative
mutagenic call (Test System: AMES SALMONELLA TYPHIMURIUM, Strain/Indicator: TA100, Metabolic Activation: HAMSTER, LIVER, S-9, AROCLOR 1254, Method: STANDARD PLATE): active; positive
mutagenic call [3]: active; positive
mutagenic call [4]: active; positive
mutagenic call (Test System: MOUSE LYMPHOMA, Strain/Indicator: L5178Y (TK+/TK-), Metabolic Activation: NONE, Method: SUSPENSION/PLATE): inactive; positive. reevaluation of results: negative
mutagenic call (Test System: MOUSE LYMPHOMA, Strain/Indicator: L5178Y (TK+/TK-), Metabolic Activation: RAT, LIVER, S-9, AROCLOR 1254, Method: SUSPENSION/PLATE): active; positive. reevaluation of results: inconclusive

O=C(Cl)c1ccccc1C(=O)Cl
mutagenic call (Test System: AMES SALMONELLA TYPHIMURIUM, Strain/Indicator: TA98, Metabolic Activation: NONE, Method: PREINCUBATION): active; positive
mutagenic call (Test System: AMES SALMONELLA TYPHIMURIUM, Strain/Indicator: TA98, Metabolic Activation: RAT LIVER S-9, PCB, Method: PREINCUBATION): active; positive
mutagenic call [5]: active; positive
mutagenic call (Test System: AMES SALMONELLA TYPHIMURIUM, Strain/Indicator: TA100, Metabolic Activation: RAT LIVER S-9, PCB, Method: PREINCUBATION): active; positive
mutagenic call (Test System: AMES SALMONELLA TYPHIMURIUM, Strain/Indicator: TA104, Metabolic Activation: NONE, Method: PREINCUBATION): active; positive
mutagenic call (Test System: AMES SALMONELLA TYPHIMURIUM, Strain/Indicator: TA104, Metabolic Activation: RAT LIVER S-9, PCB, Method: PREINCUBATION): active; positive
mutagenic call (Test System: E.COLI, Strain/Indicator: WP2 UVRA, Metabolic Activation: NONE, Method: PREINCUBATION): active; positive
mutagenic call (Test System: E.COLI, Strain/Indicator: WP2 UVRA, Metabolic Activation: RAT LIVER S-9, PCB, Method: PREINCUBATION): active; positive

CN(C)CCNC(=O)c1cccc2c(=O)c3ccccc3[nH]c12
mutagenic call [6]: active; positive

Nc1ccc(N=Nc2ccc(N=Nc3c(S(=O)(=O)O)cc4c(c3N)C(=O)/C(=N\Nc3ccc(N=Nc5ccc(N)cc5N)cc3)C(S(=O)(=O)O)=C4)cc2)c(N)c1
mutagenic call [7]: inactive; negative
mutagenic call [8]: active; positive

NC(=O)OC1CO1 (stereo unspecified)
mutagenic call (Test System: AMES SALMONELLA TYPHIMURIUM, Strain/Indicator: TA1535, Metabolic Activation: RAT, LIVER, MICROSOMES, Method: STANDARD PLATE): active; positive

CC/C1=C/[C@@H](C)[C@](C)(OC(C)=O)C(=O)OC/C2=C/CN(C)CC[C@@H](OC1=O)C2=O
mutagenic call (Test System: UDS RAT HEPATOCYTES, Strain/Indicator: THY INCORP, Metabolic Activation: NONE, Method: AUTORADIOGRAPHY): active; positive

O=[N+]([O-])c1ccc(CN2C3c4ccccc4-c4ccccc4C32)cc1 (stereo unspecified)
mutagenic call [3]: active; positive

Cc1ccc(OCC2CO2)cc1 (stereo unspecified)
mutagenic call [5]: active; positive
mutagenic call (Test System: AMES SALMONELLA TYPHIMURIUM, Strain/Indicator: TA100, Metabolic Activation: RAT, LIVER, S-9, AROCLOR 1254 (10%), Method: PREINCUBATION): active; positive
mutagenic call (Test System: AMES SALMONELLA TYPHIMURIUM, Strain/Indicator: TA1535, Metabolic Activation: HAMSTER, LIVER, S-9, AROCLOR 1254 (10%), Method: PREINCUBATION): active; positive
mutagenic call [9]: active; positive
mutagenic call (Test System: AMES SALMONELLA TYPHIMURIUM, Strain/Indicator: TA1535, Metabolic Activation: RAT, LIVER, S-9, AROCLOR 1254 (10%), Method: PREINCUBATION): active; positive

CC(=O)OCCCCONC(=O)c1ccccc1
mutagenic call [1]: active; positive
mutagenic call [3]: active; positive
mutagenic call (Test System: AMES SALMONELLA TYPHIMURIUM, Strain/Indicator: TA100, Metabolic Activation: RAT,S-9, AROCLOR, Method: STANDARD PLATE): active; positive

OCCN1CC1
mutagenic call (Test System: CHINESE HAMSTER V-79, Strain/Indicator: V-79/6-THIOGUANINE, Metabolic Activation: NONE, Method: FLASK ASSAY): active; positive

Cc1ccc(Cl)c(N)c1
mutagenic call (Test System: UDS RODENT HEPATOCYTES, Strain/Indicator: THY INCORP (NON-S-PHASE), Metabolic Activation: NONE, Method: AUTORADIOGRAPHY): inactive; negative

O=C(N=c1sn(C(=O)c2cccc([N+](=O)[O-])c2)c2ccc([N+](=O)[O-])cc12)c1cccc([N+](=O)[O-])c1
mutagenic call (Test System: AMES SALMONELLA TYPHIMURIUM, Strain/Indicator: TA100, Metabolic Activation: S-9, Method: STANDARD PLATE): active; positive

CC[N+]([O-])=NC
mutagenic call (Test System: AMES SALMONELLA TYPHIMURIUM, Strain/Indicator: TA1535, Metabolic Activation: HAMSTER, LIVER, S-9, AROCLOR 1254, Method: PREINCUBATION): inactive; negative
mutagenic call [9]: inactive; negative
mutagenic call (Test System: AMES SALMONELLA TYPHIMURIUM, Strain/Indicator: TA1535, Metabolic Activation: RAT, LIVER, S-9, AROCLOR 1254, Method: PREINCUBATION): inactive; negative

O=CC(O)C(O)C(O)CO (stereo unspecified)
mutagenic call [1]: inactive; negative
mutagenic call [2]: inactive; negative
mutagenic call [3]: inactive; negative
mutagenic call [4]: inactive; negative
mutagenic call (Test System: AMES SALMONELLA TYPHIMURIUM, Strain/Indicator: TA1535, Metabolic Activation: NONE, Method: STANDARD PLATE): inactive; negative
mutagenic call (Test System: AMES SALMONELLA TYPHIMURIUM, Strain/Indicator: TA1535, Metabolic Activation: RAT, LIVER, S-9, AROCLOR 1254, Method: STANDARD PLATE): inactive; negative
mutagenic call [6]: inactive; negative
mutagenic call (Test System: AMES SALMONELLA TYPHIMURIUM, Strain/Indicator: TA1537, Metabolic Activation: RAT, LIVER, S-9, AROCLOR 1254, Method: STANDARD PLATE): inactive; negative
mutagenic call [7]: inactive; negative
mutagenic call [8]: inactive; negative
mutagenic call (Test System: E. COLI, Strain/Indicator: WP2, Metabolic Activation: NONE, Method: STANDARD PLATE): inactive; negative
mutagenic call (Test System: E. COLI, Strain/Indicator: WP2, Metabolic Activation: RAT, LIVER, S-9, AROCLOR 1254, Method: STANDARD PLATE): inactive; negative

NC(=O)OC[C@@H]1[C@H](NC(=O)/C(=N\OCC(=O)O)c2csc(N)n2)C(=O)N1S(=O)(=O)O
mutagenic call (Test System: AMES SALMONELLA TYPHIMURIUM, Strain/Indicator: TA98, Metabolic Activation: NONE): inactive; negative
mutagenic call (Test System: AMES SALMONELLA TYPHIMURIUM, Strain/Indicator: TA98, Metabolic Activation: S-9): inactive; negative
mutagenic call (Test System: AMES SALMONELLA TYPHIMURIUM, Strain/Indicator: TA100, Metabolic Activation: NONE): inactive; negative
mutagenic call (Test System: AMES SALMONELLA TYPHIMURIUM, Strain/Indicator: TA100, Metabolic Activation: S-9): inactive; negative
mutagenic call (Test System: AMES SALMONELLA TYPHIMURIUM, Strain/Indicator: TA1537, Metabolic Activation: NONE): inactive; negative
mutagenic call (Test System: AMES SALMONELLA TYPHIMURIUM, Strain/Indicator: TA1537, Metabolic Activation: S-9): inactive; negative
mutagenic call (Test System: E. COLI, Strain/Indicator: WP2 (HCR), Metabolic Activation: NONE): inactive; negative
mutagenic call (Test System: E. COLI, Strain/Indicator: WP2 (HCR), Metabolic Activation: S-9): inactive; negative
